Results reported in patent US20110021560A1, “Compositions And Methods For Regulating Chondrocyte Proliferation In Bone Disorders” (University of Massachusetts Medical School, priority 2009, published 2011).

How the values were obtained:
[1] = tested on: fracture healing; settings: rats (Simon et al., 2002); cited from earlier work
[2] = tested on: fracture callous; experiment: Mouse femur fracture model: histology and histomorphometry of fracture callous; type: in vivo, C57B/6 mice; settings: for new bone formation by histomorphometry: Day 7 and Day 10, compared with controls; for amount of unmineralized chondroid matrix / callous size: Day 7 and Day 10 post fracture, vs control; for early stages of fracture repair (Safranin-O histology): animals sacrificed at Days 7, 10 and 14, oral gavage, montelukast sodium 1.5 mg/kg/Day, zileuton 45 mg/kg/Day; for fracture bridging and callous remodeling: by Day 21 (data not shown); for amount of chondroid (quantification) / percent chondroid (quantification) / total callous size (quantification): compared to control, montelukast sodium vs zileuton not significant
Description: Because leukotrienes have been reported as potent inflammatory agents and may have a role as negative regulators of mesenchymal stem cell (MSC) differentiation, it was reasonable to determine as to whether inhibiting the effect of the cysteinyl leukotrienes would enhance chondrocyte proliferation in a bone healing from a fracture. See, Example II. […] Day 0 post-fracture X-rays were taken while under anesthesia. See, FIG. 3. Subsequent X-rays were taken at Days 7, 10, 14, and 21 for all animals (N=4) until the time of sacrifice. […] Histological sections for Days 7, 10, and 14 post-fracture where the differences between treated and control groups were most readily identifiable at early time points. See, FIG. 4. For example, evidence of healing was readily visible between the two treatment groups versus control as early as Day 7.
(§1) C57B/6 mice were purchased (Charles River, Inc.Q3) and housed in the animal facility at the University of Massachusetts Medical School under IACUC approved protocol. Eight- to 9-week-old animals were used in the study.
(§2) Institutional approval was obtained and all procedures were undertaken in accordance with approved IACUC methods. Animals were administered general anesthesia using IP injections of ketamine and xylazine. A midline skin incision over the knee joint was utilized and a median parapatellar arthrotomy was performed to expose the trochlear groove. A pilot hole was made using a 25 gauge needle to gain access to the femoral canal. The central cannula from a 22 gauge spinal needle was inserted into the canal and passed to the proximal femur in retrograde fashion. The wire was backed out slightly, cut, and reinserted. Wounds were closed, and the femur was held in a fixed position while a drop weight from a standard height was used to deliver a fixed traumatic injury to the mid portion of the femur, generating a fracture via three point bending, and ensuring that fractures were generated using a traumatic method with reproducible energy of injury (Marturano et al., 2008).
(§3) Medications were suspended in 1% methylcellulose (Sigma, Inc.Q6) and delivered by direct intragastric delivery. […] As the study medications are both currently FDA approved for the treatment of reactive airway disease, our dosing frequency was based on current prescription guidelines. Montelukast sodium was administered once daily by oral gavage. At the time the study began, zileuton was only approved for four times per Day dosing; as the drug needed to be administered by oral gavage and to maintain the normal sleep/awake cycle of the mouse colonies in the animal facilities, three doses of zileuton were dosed at 6-h intervals, with a 12-h break from 8 pm to 8 am. Control animals received 1% methylcellulose carrier only by a single daily oral gavage. The first dose of all medications was administered on post-fracture Day 1.
All animals were examined pre- and post-fracture using live fluoroscopy with an inverted Xiscan 1000 fluoroscope. Pre-fracture imaging was used to confirm correct positioning of the stabilizing wire, and post-fracture imaging was used to confirm correct fracture location and configuration. Additionally, standard radiographs were obtained in all animals immediately post-fracture with a high resolution MX-20 Faxitron on mammography film. Animals were anesthetized for additional X-rays to document fracture repair at 7, […] Days post-fracture. Animals were sacrificed immediately post-fracture if the fracture was not diaphyseal and transverse.
Fracture specimens were harvested at various times (7, 10, 14, and 21 Days) and fixed in a solution of 4% paraformaldehyde, 0.1% CPC in PBS for 16 h at room temperature, and then embedded in paraffin after decalcification. Embedded tissues were sectioned into […] slices, mounted on silane-coated glass slides (FisherQ7), de-paraffinized, and re-hydrated. […]

[3] = tested on: fracture callous mRNA expression; experiment: Quantitative real-time PCR of fracture callous tissue in mouse fracture model; type: in vivo, C57B/6 mice; settings: for Col 1 mRNA levels: Day 7, compared with controls (data not shown); for Runx2 mRNA levels: Day 10, vs control (montelukast sodium P<0.05; zileuton P=0.06); for osteocalcin mRNA levels: Day 10, vs control (montelukast sodium P<0.05; zileuton P=0.07); for CysLT1 receptor mRNA levels in fracture callous: Day 10, control peak expression significantly higher; for Col 10a1 mRNA levels: Day 14, vs control (P<0.01)
Description: Fracture callous was harvested from animals (N=4) in the three treatment groups after sacrifice at days 7, 10, 14, and 21 and assayed for expression of chondrogenic markers by qPCR. See, FIG. 10. […] Although it is not necessary to understand the mechanism of an invention, it is believed that the expression of Sox9 and Col 2a mRNA indicate a cellular commitment to the chondrocyte phenotype.
as §1, §2
as §3, with “Montelukast sodium was administered once daily by oral gavage.” left out
Mice were sacrificed on Days 7, 10, 14, and 21 post-fracture. The fractured limb was carefully dissected free and all overlying tissue was carefully removed to expose the fracture callous. Callous tissue alone was then placed in TRIzol reagent, avoiding the underlying cortical bone. The tissue was ground using a Polytron homogenizer and total RNA was isolated as per the manufacturer's instructions (InvitrogenQ11). Any potential DNA contamination was removed by RNase-free DNase treatment. The reverse transcription reaction was performed on […] of total RNA using the First Strand Synthesis Kit and random hexamer primers (Invitrogen). Relative transcript levels were measured by real-time PCR in a […] reaction volume on 96-well plate using ABI PRISM 7000 FAST sequence detection system (Applied BiosystemsQ12), following the recommended protocol for SYBR-Green (Applied Biosystems). Transcript levels were normalized with 18S ribosomal RNA levels using primers from Applied Biosystems and SYBR-Green master mix (Applied Biosystems). The primers used for amplification are described in Table 2.
Student's t-test was performed to analyze the significance of the data for gene expression and histomorphometric analysis.

[4] = Day 10, vs control (P<0.05 for zileuton)

Row | SMILES | fracture healing (radiographic, histological, mechanical testing) [1] | new bone formation by histomorphometry [2] | amount of unmineralized chondroid matrix [2] | callous size [2] | early stages of fracture repair (Safranin-O histology) [2] | fracture bridging and callous remodeling [2] | amount of chondroid (quantification) [2] | percent chondroid (quantification) [2] | total callous size (quantification) [2] | Col 1 mRNA levels [3] | Col 2a1 mRNA expression [3, 4] | SOX9 mRNA expression [3, 4] | Runx2 mRNA levels [3] | osteocalcin mRNA levels [3] | CysLT1 receptor mRNA levels in fracture callous [3] | Col 10a1 mRNA levels [3] | Col 2a1 mRNA expression ([3]; Day 14, vs control (P<0.05)) | time of peak Sox9 mRNA levels ([3]; controls peak at day 7) | histone gene expression by qRT-PCR ([3]; data not shown)
1 | Cc1ccc(-c2cc(C(F)(F)F)nn2-c2ccc(S(N)(=O)=O)cc2)cc1 [celecoxib] | fracture healing failed |  |  |  |  |  |  |  |  |  |  |  |  |  |  |  |  |  | 
2 | CC(C)(O)c1ccccc1CCC(SCC1(CC(=O)O)CC1)c1cccc(C=Cc2ccc3ccc(Cl)cc3n2)c1 (centres unmarked) [montelukast sodium, [1-[[1-[3-[2-[(7-chloro-2-quinolyl)]vinyl]phenyl]-3-[2-(1-hydroxy-1-methyl-1-ethyl)phenyl]-propyl]sulfanylmethyl]-cyclopropyl]acetic acid] |  | significantly greater | markedly increased | dramatically larger | enhances | bridged the ends of the fracture and remodeled the callous to woven bone | significantly greater | significantly greater | significantly greater | decrease | not seen | not seen | higher | elevated | low | higher | elevated | peak later than controls at Day 10 | 
3 | CS(=O)(=O)c1ccc(C2=C(c3ccccc3)C(=O)OC2)cc1 [rofecoxib] | fracture healing failed |  |  |  |  |  |  |  |  |  |  |  |  |  |  |  |  |  | 
4 | CC(c1cc2ccccc2s1)N(O)C(N)=O (centres unmarked) [zileuton] |  | significantly greater | markedly increased | dramatically larger | enhances | bridged the ends of the fracture and remodeled the callous to woven bone | significantly greater | significantly greater | significantly greater | decrease | elevated | elevated | increased | elevated | low | significantly higher |  |  | higher
